These are literature values, as cited in patent publication US12708613B2, “Methods for improving physical exercise performance” (NOMIO NUTRITION AB, priority 2020, dated 2026).

This series relates to mice.

For `C[S+]([O-])CCCCN=C=S` (centres unmarked) [sulforaphane, 1-Isothiocyanato-4-(methanesulfinyl)butane], the “effect on glucose levels” value (mice models) is recorded as “no effect”. Further, the endurance result (mice, injected (intraperitoneally, 25 mg/kg body weight)) is given as “improved endurance”.
